How the values were obtained:
[1] = Stability on recrystallization from water and methanol; format: physicochemical; settings: recrystallized from water and from methanol, crystals of the same composition
Method: [Cu2(μ-fu)(pmdien)2(H2O)2](ClO4)2 (complex No. 5) and [Cu2(μ-dtdp)(pmdien)2(H2O)2](ClO4)2 (complex No. 6) were prepared according to a published procedure. […] The structure of complex No. 6 was presented by us in [20]. The structure of complex No. 5 was measured again (the structure was previously solved with worse parameters by Mautner), and our new single crystal data were deposited under CCDC 2378750. Tables with crystal data, structure refinement, and selected bond lengths and angles are presented in ESI (Tables S1–S3). The molecular structures are depicted in Figure 1. It can be seen that the binuclear copper complexes differ in the dicarboxylato bridge. The coordination number on copper is five. All the copper centers are coordinated by three nitrogen atoms of tridentate chelating ligand pmdien and two oxygen atoms. One oxygen is from a water molecule, and the second one is from a monodentately bonding carboxylato group. The fumarato bridge contains a double bond, whereas the dithiodipropionato bridge is longer, with two sulfur atoms. Neither the double bond nor the sulfur atoms are involved in coordination with central atoms. Two perchlorate anions in each molecule are not involved in coordination. There are only hydrogen bonds among the oxygen atoms of the perchlorate group and hydrogens of the coordination cation.

P. aeruginosa = system: P. aeruginosa; set-up: method as in doi:10.1016/j.ica.2022.121273; settings: Gram-negative; cited from earlier work
CYP2D6 = target: T1, CYP2D6 (Homo sapiens, UniProt P10635); experiment: Inhibition of CYP2D6 activity (bufuralol 1′-hydroxylation) in human liver microsomes; format: in vitro ADME; settings: HLM, bufuralol 15 µmol·L^−1, preincubation 30 min at 37 °C, Mean ± S.D.
T1 construct: Pooled human liver microsomes were obtained from Biopredic (Rennes, France); tissue Biopredic (Rennes, France); host or cells: pooled human liver microsomes, seventeen donors
T1 sequence (P10635 whole entry): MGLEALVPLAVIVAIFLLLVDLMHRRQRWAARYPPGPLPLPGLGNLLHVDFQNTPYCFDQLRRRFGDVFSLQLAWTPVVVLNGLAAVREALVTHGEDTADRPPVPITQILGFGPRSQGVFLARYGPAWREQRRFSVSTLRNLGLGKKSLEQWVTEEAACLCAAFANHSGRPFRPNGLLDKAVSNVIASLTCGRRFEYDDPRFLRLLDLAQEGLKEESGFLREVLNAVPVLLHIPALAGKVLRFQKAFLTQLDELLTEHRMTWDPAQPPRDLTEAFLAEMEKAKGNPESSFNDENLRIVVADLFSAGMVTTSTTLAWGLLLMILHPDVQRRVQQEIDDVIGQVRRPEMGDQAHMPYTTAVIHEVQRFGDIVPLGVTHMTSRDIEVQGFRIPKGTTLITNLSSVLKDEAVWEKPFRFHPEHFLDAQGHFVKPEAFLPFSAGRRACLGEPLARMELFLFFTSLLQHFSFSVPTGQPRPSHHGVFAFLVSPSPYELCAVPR
Method: (§1) The following enzyme assays were performed to determine the activities of specific CYP enzymes: CYP1A2, 7-ethoxyresorufin O-deethylation; CYP2A6, coumarin 7-hydroxylation; CYP2B6, 7-ethoxy-4-(trifluoromethyl) coumarin (EFC) O-deethylation; CYP2C8 paclitaxel 6α-hydroxylation; CYP2C9, diclofenac 4′-hydroxylation; CYP2C19, diazepam N-desmethylation; CYP2D6, bufuralol 1′-hydroxylation; CYP2E1, chlorzoxazone 6-hydroxylation; and CYP3A4/5, testosterone 6β-hydroxylation. […]
(§2) For the determination of metabolites formed from specific substrates, a Prominence LC-20A HPLC system (Shimadzu, Kyoto, Japan) with UV detection or fluorescence detection was used (see Table 2). […]
(§3) Initially, for each enzyme assay, a preliminary experiment was carried out to determine Km and Vmax to obtain the appropriate concentration of the specific substrates for the inhibition experiments (the substrate concentration was chosen in the range corresponding to the value of the Km for each particular reaction). Data were analyzed using the Sigma plot software, as mentioned above, with spectral studies. […] In all cases, the inhibition of individual CYP activities was evaluated by plotting the respective remaining activity against the inhibitor concentration.

CYP2C9 = target: T2, CYP2C9 (Homo sapiens, UniProt P11712); experiment: Inhibition of CYP2C9 activity (diclofenac 4′-hydroxylation) in human liver microsomes; format: in vitro ADME; settings: HLM, diclofenac 16 µmol·L^−1, preincubation 30 min at 37 °C, Mean ± S.D.
T2 construct: Pooled human liver microsomes were obtained from Biopredic (Rennes, France); tissue Biopredic (Rennes, France); host or cells: pooled human liver microsomes, seventeen donors
T2 sequence (P11712 whole entry): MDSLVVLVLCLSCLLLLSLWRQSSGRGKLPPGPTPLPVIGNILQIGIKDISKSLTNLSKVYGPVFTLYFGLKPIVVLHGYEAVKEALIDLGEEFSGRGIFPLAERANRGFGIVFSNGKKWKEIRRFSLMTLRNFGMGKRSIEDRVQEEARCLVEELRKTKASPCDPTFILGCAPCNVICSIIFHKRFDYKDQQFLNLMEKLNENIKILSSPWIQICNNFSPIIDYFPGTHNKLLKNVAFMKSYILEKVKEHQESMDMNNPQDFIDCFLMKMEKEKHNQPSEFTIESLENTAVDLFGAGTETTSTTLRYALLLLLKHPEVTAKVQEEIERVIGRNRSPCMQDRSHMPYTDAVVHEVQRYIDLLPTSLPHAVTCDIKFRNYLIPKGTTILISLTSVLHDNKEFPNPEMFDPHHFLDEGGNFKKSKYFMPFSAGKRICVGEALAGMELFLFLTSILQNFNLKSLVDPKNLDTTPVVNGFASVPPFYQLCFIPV
Method: as §1, §2, §3

Row | Compound | stability of the complex in solvents [1] | MIC P. aeruginosa (P. aeruginosa) [µg/mL] | IC50 (CYP2D6) [µM] | IC50 (CYP2C9) [µM]
1 | CN(C)CCN(C)CCN(C)C.CN(C)CCN(C)CCN(C)C.O.O.O=C([O-])/C=C/C(=O)[O-].[Cu+2].[Cu+2].[O-][Cl+3]([O-])([O-])[O-].[O-][Cl+3]([O-])([O-])[O-] [Complex No. 5, [Cu2(μ-fu)(pmdien)2(H2O)2](ClO4)2] | very good stability | 2.11 | 12.4 ± 0.21 | 12.59 ± 0.06
2 | CN(C)CCN(C)CCN(C)C.CN(C)CCN(C)CCN(C)C.O.O.O=C([O-])CCSSCCC(=O)[O-].[Cu+2].[Cu+2].[O-][Cl+3]([O-])([O-])[O-].[O-][Cl+3]([O-])([O-])[O-] [Complex No. 6, [Cu2(μ-dtdp)(pmdien)2(H2O)2](ClO4)2] |  | 1.05 | 6.33 ± 0.22 | 12.26 ± 0.11

From paper PMC11434749, “In Vitro Interaction of Binuclear Copper Complexes with Liver Drug-Metabolizing Cytochromes P450” (Pharmaceuticals, 2024)
